From PMC11606603, “The membrane domains of mammalian adenylyl cyclases are lipid receptors” (eLife, 2024)
Values joined by “and” are separate entries in the source; they are usually repeats but may differ in a detail not shown here. Identical values can stand only once.

Legend:
Assay type in all cases: biochemical
mAC2 = target: T1, mAC2 (Homo sapiens, UniProt Q08462); experiment: AC assay, Gsα-stimulated mAC2 in membranes from transfected HEK293 cells; settings: Figure 5-figure supplement 1 left, 20 µM
T1 construct: Human mAC genes were from GenScript and fitted with a C-terminal FLAG-tag; FLAG (C); made in house; host or cells: HEK293, permanently transfected; membrane preparation
Experimental: (§1) hAC sequences were from NCBI were: ADCY1: NM_021116.3; ADCY2: NM_020546.2; ADCY3: NM_004036.4; ADCY4: NM_001198568.2; ADCY5: NM_183357.2; ADCY6: NM_015270.4; ADCY7: NM_001114.4; ADCY8: NM_001115.2; ADCY9: NM_001116.3. Human mAC genes were from GenScript and fitted with a C-terminal FLAG-tag. […] The gene was synthesized by GenScript. HEK293 cells were maintained in Dulbeccos Modified Eagle Medium (DMEM) with 10% fetal bovine serum at 37°C and 5% CO2. Transfection with AC plasmids was with PolyJet (SignaGen, Frederick, MD, USA). Permanent cell lines were generated by selection for 7 days with 600 µg/ml G418 and maintained with 300 µg/ml For membrane preparation, cells were tyrpsinized, collected by centrifugation (3000 × g, 5 min) and lysed and homogenized in 20 mM HEPES, pH 7.5, 1 mM Ethylenediaminetetraacetic acid (EDTA), 2 mM MgCl2, 1 mM Dithiothreitol (DTT), one tablet of cOmplete, EDTA-free (per 50 ml) and 250 mM sucrose by 20 strokes in a potter homogenizer on ice. Debris was removed (5 min at 1000 × g, 0°C), membranes were collected at 100,000 × g, 60 min at 0°C, suspended and stored at −80°C in 20 mM MOPS, pH 7.5, 0.5 mM EDTA, 2 mM MgCl2. […] Three cerebral cortices were dissected and homogenized in 4.5 ml cold 48 mM Tris–HCl, pH 7.4, 12 mM MgC1_2, and 0.1 mM Ethylene glycol-bis(β-aminoethyl ether)-N,N,N′,N′-tetraacetic acid (EGTA) with a Polytron hand disperser (Kinematica AG, Switzerland). […] The pellet was washed once with 5 ml 1 mM KHCO3. The final suspension in 2 ml 1 mM KHCO3 was stored in aliquots at −80°C.
(§2) In a volume of 10 μl, AC activities were measured using 1 mM ATP, 2 mM MgCl2, 3 mM creatine phosphate, 60 μg/ml creatine kinase, and 50 mM MOPS pH 7.5. The cAMP assay kit from Cisbio (Codolet, France) was used for detection according to the supplier’s instructions. For each assay, a cAMP standard curve was established. EC50 and IC50 values were calculated by GraphPad Prism version 8.4.3 for Windows, GraphPad Software, San Diego, CA, USA, https://www.graphpad.com .

mAC3 = target: T2, mAC3 (Homo sapiens, UniProt O60266); experiment: AC assay, Gsα-stimulated mAC3 in membranes from transfected HEK293 cells; settings: for mAC3 activity [%] (100% = 300nM Gsα stimulation): individual experiments; for Effect of lipid on 300 nM Gsα-stimulated mAC3: 20 µM, in words
T2 construct: Human mAC genes were from GenScript and fitted with a C-terminal FLAG-tag; FLAG (C); made in house; host or cells: HEK293, permanently transfected; membrane preparation
T2 sequence (O60266 whole entry): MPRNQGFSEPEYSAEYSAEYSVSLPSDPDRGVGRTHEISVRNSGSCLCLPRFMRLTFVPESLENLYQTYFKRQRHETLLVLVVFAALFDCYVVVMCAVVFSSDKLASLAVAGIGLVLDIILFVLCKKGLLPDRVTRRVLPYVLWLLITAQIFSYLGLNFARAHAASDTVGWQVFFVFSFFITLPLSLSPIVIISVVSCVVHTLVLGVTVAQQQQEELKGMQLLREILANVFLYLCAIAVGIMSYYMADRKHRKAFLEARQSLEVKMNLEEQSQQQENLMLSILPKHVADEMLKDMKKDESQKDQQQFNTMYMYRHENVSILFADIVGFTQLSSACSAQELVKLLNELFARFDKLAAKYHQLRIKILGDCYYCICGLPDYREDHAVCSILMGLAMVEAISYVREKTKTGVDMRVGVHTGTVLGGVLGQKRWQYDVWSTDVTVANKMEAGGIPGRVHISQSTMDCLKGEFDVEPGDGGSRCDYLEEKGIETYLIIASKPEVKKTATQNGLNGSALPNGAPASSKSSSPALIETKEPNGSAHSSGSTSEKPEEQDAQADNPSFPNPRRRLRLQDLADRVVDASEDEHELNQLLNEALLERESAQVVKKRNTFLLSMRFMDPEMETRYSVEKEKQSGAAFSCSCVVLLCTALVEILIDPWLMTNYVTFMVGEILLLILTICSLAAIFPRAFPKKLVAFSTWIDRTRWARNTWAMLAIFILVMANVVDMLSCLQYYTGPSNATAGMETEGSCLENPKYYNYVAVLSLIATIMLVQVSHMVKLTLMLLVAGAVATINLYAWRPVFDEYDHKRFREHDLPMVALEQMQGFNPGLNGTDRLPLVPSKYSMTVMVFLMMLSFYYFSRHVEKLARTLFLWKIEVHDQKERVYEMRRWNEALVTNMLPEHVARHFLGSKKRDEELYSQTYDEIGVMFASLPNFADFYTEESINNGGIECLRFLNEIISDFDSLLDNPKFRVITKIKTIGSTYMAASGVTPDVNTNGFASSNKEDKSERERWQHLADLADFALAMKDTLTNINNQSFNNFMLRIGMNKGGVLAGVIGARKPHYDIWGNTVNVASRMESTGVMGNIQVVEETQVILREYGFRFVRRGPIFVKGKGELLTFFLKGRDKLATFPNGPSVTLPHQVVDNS
T2 sequence (P63092 whole entry Q227L partner): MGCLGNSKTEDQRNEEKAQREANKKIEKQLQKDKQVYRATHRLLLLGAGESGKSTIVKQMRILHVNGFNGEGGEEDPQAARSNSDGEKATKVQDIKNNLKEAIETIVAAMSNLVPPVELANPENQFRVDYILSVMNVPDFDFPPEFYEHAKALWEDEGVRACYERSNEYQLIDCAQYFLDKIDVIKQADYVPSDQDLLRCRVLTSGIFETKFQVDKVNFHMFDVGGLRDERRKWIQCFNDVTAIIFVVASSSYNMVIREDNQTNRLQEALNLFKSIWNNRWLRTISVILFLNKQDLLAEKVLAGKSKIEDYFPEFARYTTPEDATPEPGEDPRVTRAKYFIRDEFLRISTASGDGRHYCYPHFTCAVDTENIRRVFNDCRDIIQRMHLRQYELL
Experimental: as §1, §2

mAC4 = target: T3, mAC4 (Homo sapiens, UniProt Q8NFM4); experiment: AC assay, Gsα-stimulated mAC4 in membranes from transfected HEK293 cells; settings: 20 µM fatty acid; 300 nM Gsα; single experiments
T3 construct: Human mAC genes were from GenScript and fitted with a C-terminal FLAG-tag; FLAG (C); made in house; host or cells: HEK293, permanently transfected; membrane preparation
T3 sequence (Q8NFM4 1-1077): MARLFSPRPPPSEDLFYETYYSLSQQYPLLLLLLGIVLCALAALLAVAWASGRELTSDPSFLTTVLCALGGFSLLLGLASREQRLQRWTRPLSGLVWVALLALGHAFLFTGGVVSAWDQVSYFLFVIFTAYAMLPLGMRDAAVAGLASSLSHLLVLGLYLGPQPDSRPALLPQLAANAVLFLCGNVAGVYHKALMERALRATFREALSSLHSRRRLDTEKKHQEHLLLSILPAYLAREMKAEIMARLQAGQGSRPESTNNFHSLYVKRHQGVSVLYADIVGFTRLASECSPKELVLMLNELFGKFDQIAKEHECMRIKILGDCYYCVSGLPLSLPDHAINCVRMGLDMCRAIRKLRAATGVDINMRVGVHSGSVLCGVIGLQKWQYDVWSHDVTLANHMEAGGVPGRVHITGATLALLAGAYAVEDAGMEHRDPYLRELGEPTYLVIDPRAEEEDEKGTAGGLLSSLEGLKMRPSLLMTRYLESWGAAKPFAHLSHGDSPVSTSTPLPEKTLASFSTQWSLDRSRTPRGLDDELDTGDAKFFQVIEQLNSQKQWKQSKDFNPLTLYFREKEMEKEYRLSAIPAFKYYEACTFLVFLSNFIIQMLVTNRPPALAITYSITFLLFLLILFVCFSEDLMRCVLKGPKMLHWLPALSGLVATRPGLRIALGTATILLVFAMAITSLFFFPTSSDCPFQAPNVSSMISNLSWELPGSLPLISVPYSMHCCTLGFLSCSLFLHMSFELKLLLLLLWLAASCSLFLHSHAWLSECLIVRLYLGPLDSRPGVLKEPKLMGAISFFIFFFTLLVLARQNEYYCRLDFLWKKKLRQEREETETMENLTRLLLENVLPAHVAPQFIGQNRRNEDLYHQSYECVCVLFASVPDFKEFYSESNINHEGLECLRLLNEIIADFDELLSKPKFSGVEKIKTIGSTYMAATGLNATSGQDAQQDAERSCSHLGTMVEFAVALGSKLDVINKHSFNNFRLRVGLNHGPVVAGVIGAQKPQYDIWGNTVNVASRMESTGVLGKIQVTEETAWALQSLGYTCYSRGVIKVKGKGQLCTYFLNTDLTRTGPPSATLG
Experimental: as §1, §2

mAC5 = target: T4, mAC5 (Homo sapiens, UniProt O95622); experiment: AC assay, Gsα-stimulated mAC5 in membranes from transfected HEK293 cells
T4 construct: Human mAC genes were from GenScript and fitted with a C-terminal FLAG-tag; FLAG (C); made in house; host or cells: HEK293, permanently transfected; membrane preparation
Experimental: as §1, §2

mAC6 = target: T5, mAC6 (Homo sapiens, UniProt O43306); experiment: AC assay, Gsα-stimulated mAC6 in membranes from transfected HEK293 cells; settings: 20µM fatty acid concentration
T5 construct: Human mAC genes were from GenScript and fitted with a C-terminal FLAG-tag; FLAG (C); made in house; host or cells: HEK293, permanently transfected; membrane preparation
Experimental: as §1, §2

mAC8 = target: T6, mAC8 (Homo sapiens, UniProt P40145); experiment: AC assay, Gsα-stimulated mAC8 in membranes from transfected HEK293 cells; settings: 20µM fatty acid concentration
T6 construct: Human mAC genes were from GenScript and fitted with a C-terminal FLAG-tag; FLAG (C); made in house; host or cells: HEK293, permanently transfected; membrane preparation
Experimental: as §1, §2

mAC9 = target: T7, mAC9 (Homo sapiens, UniProt O60503); experiment: AC assay, Gsα-stimulated mAC9 in membranes from transfected HEK293 cells; settings: for mAC9 activity (%);(100% = Gsα stimulation) stimulated by 300nM Gsα: single experiments; for EC50: enhancement of 300 nM Gsα-stimulated activity, read-out: EC50 for mAC9
T7 construct: Human mAC genes were from GenScript and fitted with a C-terminal FLAG-tag; FLAG (C); made in house; host or cells: HEK293, permanently transfected; membrane preparation
Experimental: as §1, §2

mAC1 = target: T8, mAC1 (Homo sapiens, UniProt Q08828); experiment: AC assay, Gsα-stimulated mAC1 in membranes from transfected HEK293 cells; settings: 20 µM fatty acid; 300 nM Gsα; single experiments
T8 construct: Human mAC genes were from GenScript and fitted with a C-terminal FLAG-tag; FLAG (C); made in house; host or cells: HEK293, permanently transfected; membrane preparation
T8 sequence (Q08828 whole entry): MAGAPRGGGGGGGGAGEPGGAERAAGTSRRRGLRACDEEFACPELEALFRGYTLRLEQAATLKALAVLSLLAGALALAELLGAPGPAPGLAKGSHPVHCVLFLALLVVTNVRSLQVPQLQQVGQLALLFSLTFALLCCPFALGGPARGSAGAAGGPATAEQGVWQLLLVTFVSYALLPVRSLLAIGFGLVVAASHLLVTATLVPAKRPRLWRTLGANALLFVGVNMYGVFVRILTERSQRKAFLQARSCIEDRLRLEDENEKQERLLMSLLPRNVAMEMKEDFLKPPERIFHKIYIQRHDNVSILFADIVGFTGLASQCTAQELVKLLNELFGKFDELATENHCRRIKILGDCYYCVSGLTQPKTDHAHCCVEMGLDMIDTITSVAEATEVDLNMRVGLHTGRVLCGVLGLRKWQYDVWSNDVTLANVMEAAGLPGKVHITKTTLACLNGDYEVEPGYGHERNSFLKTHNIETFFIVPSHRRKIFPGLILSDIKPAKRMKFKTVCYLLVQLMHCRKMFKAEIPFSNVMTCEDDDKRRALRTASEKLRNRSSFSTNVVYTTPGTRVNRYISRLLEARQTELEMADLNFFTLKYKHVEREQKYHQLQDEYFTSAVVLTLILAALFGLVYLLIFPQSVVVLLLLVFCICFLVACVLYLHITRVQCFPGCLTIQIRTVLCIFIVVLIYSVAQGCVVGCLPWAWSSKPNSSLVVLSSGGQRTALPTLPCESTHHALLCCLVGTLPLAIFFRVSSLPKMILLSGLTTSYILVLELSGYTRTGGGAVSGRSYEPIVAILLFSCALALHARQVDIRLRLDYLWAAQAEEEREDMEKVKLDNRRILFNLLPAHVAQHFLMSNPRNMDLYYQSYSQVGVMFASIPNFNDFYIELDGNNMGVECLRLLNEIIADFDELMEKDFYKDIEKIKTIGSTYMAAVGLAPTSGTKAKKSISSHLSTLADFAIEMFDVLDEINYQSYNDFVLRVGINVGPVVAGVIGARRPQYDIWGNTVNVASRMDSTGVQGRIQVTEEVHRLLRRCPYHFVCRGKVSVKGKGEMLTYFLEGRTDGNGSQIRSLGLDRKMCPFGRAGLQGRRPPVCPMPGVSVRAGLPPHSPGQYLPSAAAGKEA
Experimental: as §1, §2

mAC7 = target: T9, mAC7 (Homo sapiens, UniProt P51828); experiment: AC assay, Gsα-stimulated mAC7 in membranes from transfected HEK293 cells; settings: Figure 5-figure supplement 2 left, 20 µM
T9 construct: Human mAC genes were from GenScript and fitted with a C-terminal FLAG-tag; FLAG (C); made in house; host or cells: HEK293, permanently transfected; membrane preparation
T9 sequence (P51828 whole entry): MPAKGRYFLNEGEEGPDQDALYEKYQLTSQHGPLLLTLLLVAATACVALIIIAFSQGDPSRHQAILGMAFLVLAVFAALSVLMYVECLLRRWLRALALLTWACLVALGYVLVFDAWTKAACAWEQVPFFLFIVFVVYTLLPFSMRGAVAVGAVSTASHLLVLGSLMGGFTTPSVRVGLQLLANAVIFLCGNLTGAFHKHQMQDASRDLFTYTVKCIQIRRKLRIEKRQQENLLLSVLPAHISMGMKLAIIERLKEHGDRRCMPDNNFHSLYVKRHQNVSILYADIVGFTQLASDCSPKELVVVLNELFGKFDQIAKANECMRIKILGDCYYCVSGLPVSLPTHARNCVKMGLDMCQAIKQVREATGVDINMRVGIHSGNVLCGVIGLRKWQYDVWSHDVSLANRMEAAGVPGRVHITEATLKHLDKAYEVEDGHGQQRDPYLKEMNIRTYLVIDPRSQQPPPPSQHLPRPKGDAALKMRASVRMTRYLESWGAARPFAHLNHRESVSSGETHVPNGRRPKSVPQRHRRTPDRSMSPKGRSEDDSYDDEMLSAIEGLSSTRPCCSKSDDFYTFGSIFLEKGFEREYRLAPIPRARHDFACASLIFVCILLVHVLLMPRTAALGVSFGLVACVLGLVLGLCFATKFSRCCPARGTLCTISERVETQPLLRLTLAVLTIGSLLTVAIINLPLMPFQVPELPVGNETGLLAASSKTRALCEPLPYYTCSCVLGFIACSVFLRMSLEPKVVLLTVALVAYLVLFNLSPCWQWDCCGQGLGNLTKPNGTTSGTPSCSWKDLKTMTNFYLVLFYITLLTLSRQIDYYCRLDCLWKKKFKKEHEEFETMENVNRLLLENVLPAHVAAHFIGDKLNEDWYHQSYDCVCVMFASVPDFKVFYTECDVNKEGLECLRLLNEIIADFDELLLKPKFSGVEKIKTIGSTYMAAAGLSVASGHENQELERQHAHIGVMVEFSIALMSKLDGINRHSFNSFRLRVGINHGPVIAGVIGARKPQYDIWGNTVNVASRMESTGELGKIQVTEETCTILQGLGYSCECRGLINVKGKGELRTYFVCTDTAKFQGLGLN
T9 sequence (P63092 2-394 Q227L partner): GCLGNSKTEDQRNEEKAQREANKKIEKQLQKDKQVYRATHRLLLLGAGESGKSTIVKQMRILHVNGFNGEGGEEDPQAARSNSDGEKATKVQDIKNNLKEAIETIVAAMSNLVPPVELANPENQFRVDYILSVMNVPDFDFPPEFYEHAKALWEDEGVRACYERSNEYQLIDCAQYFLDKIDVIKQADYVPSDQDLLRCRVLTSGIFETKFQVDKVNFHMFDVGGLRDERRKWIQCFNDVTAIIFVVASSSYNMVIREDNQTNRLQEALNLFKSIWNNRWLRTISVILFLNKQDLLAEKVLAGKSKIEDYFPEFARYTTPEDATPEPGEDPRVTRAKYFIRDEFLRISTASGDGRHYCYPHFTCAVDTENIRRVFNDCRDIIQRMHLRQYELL
Experimental: as §1, §2

| Compound | mAC2 activity [%] (100% = 300nM Gsα stimulation); 20µM fatty acid concentration (mAC2) | mAC3 activity [%] (100% = 300nM Gsα stimulation) (mAC3; fatty acid 20 µM) | mAC4 activity [%] (100% = 300nM Gsα stimulation); 20µM fatty acid concentration (mAC4) | mAC5 activity [%] (100% = 300nM Gsα stimulation) (mAC5; 20µM fatty acid concentration) | mAC6 activity [%] (100% = 300nM Gsα stimulation) (mAC6) | mAC8 activity [%] (100% = 300nM Gsα stimulation) (mAC8) | mAC9 activity (%);(100% = Gsα stimulation) stimulated by 300nM Gsα (mAC9; 3 µM fatty acid) | mAC9 activity (%);(100% = Gsα stimulation) stimulated by 300nM Gsα (mAC9; 6 µM fatty acid) | EC50 (mAC9) [µM] | mAC1 activity [%] (100% = 300nM Gsα stimulation); 20µM fatty acid concentration (mAC1) | Effect of lipid on 300 nM Gsα-stimulated mAC3 (mAC3) | mAC7 activity [%] (100% = 300nM Gsα stimulation); 20µM fatty acid concentration (mAC7) | mAC9 activity (%);(100% = Gsα stimulation) stimulated by 300nM Gsα (mAC9; 10 µM fatty acid) | other results |
| --- | --- | --- | --- | --- | --- | --- | --- | --- | --- | --- | --- | --- | --- | --- |
| CCCCCCCCCCCC(=O)O [Lauric acid, Lauric (dodecanoic) acid] | 89% and 79% | 117% and 189% and 186% and 84% | 54% and 104% and 67% | 107% and 56% | 93% and 80% | 80% and 69% | 128% and 86% and 116% | 165% and 99% and 97% and 190% | 13.7 | – | – | – | – | – |
| CCCCC/C=C\C/C=C\CCCCCCCC(=O)O [Linoleic acid, Linoleic ((9Z,12Z)-octadecadienoic) acid] | 118% and 99% and 198% and 131% | 376% and 503% and 335% and 235% and 456% | – | 112% and 153% | 105% and 198% and 128% | 119% and 212% and 115% and 129% | 129% and 139% and 117% and 119% | 164% and 205% and 170% and 134% and 195% | – | 62% and 76% and 95% | efficient enhancers | 135% and 130% | 240% and 217% and 225% and 306% and 322% and 286% and 203% | mAC9 activity (%);(100% = Gsα stimulation) stimulated by 300nM Gsα (mAC9; 1 µM fatty acid): 145% and 101% and 154% and 180% |
| CCCCCCCC/C=C\CCCCCCCC(N)=O [Oleamide, Oleamide ((9Z)-octadecenamide)] | 133% and 84% | 154% and 144% and 201% and 238% and 301% and 167% and 90% and 168% | 104% and 64% and 83% | 97% and 111% | 98% and 77% | 104% and 74% | – | – | – | 99% and 109% | less efficacious | 107% and 99% | – | – |
| CCCCCCCCCCCCCCCC(=O)O [Palmitic acid, Palmitic (hexadecanoic) acid] | 108% and 97% | 279% and 263% and 138% and 341% and 182% and 165% and 224% and 164% and 153% and 126% and 243% | 76% and 92% and 77% and 101% | 123% and 77% and 97% | 91% and 114% and 61% and 106% | – | – | – | 8.6 | 93% and 87% and 105% | less efficacious | 106% and 127% and 193% and 124% | 258% and 146% and 141% and 173% and 189% and 161% and 157% | Effect of lipid on 300 nM Gsα-stimulated mAC3 (mAC3; listed as palmitic acid): twofold; EC50 (mAC3; enhancement of 300 nM Gsα-stimulated activity): 6.4 µM; mAC3 activity [%] (100% = 300nM Gsα stimulation) (mAC3; fatty acid 0.5 µM): 100%; mAC3 activity [%] (100% = 300nM Gsα stimulation) (mAC3; fatty acid 1 µM): 166% and 108% and 118% (2×) and 87% and 83% and 122%; mAC3 activity [%] (100% = 300nM Gsα stimulation) (mAC3; fatty acid 3 µM): 122% and 126% and 125% and 136% and 114% and 107% and 116%; mAC3 activity [%] (100% = 300nM Gsα stimulation) (mAC3; fatty acid 6 µM): 107% and 145% and 118% and 129% and 73% and 158% and 259%; mAC3 activity [%] (100% = 300nM Gsα stimulation) (mAC3; fatty acid 10 µM): 188% and 338% and 172% and 339% and 112% and 94% and 165% and 197% and 126% and 128% and 237%; mAC5 activity [%] (100% = 300nM Gsα stimulation) (mAC5; fatty acid 0.5 µM, individual experiments): 100%; mAC5 activity [%] (100% = 300nM Gsα stimulation) (mAC5; fatty acid 1 µM, individual experiments): 71% and 83% and 111%; mAC5 activity [%] (100% = 300nM Gsα stimulation) (mAC5; fatty acid 3 µM, individual experiments): 66% and 80% and 162%; mAC5 activity [%] (100% = 300nM Gsα stimulation) (mAC5; fatty acid 6 µM, individual experiments): 50% and 108% and 125%; mAC5 activity [%] (100% = 300nM Gsα stimulation) (mAC5; fatty acid 10 µM, individual experiments): 57% and 89% and 94% and 103%; mAC5 activity [%] (100% = 300nM Gsα stimulation) (mAC5; fatty acid 20 µM, individual experiments): 123% (2×) and 77% and 97%; mAC9 activity (%);(100% = Gsα stimulation) stimulated by 300nM Gsα (mAC9; 20 µM fatty acid): 184% |
